Measured values as given in PMC6255974 (Frontiers in Pharmacology, 2018).
Structures can show the parent of a compound that is named as a salt.

How the values were obtained:
[1] = set-up: method as in Dieterich et al., 1984; conditions: humans; oral 2 × 260 mg quinine sulfate; ref Dieterich et al., 1984; cited from earlier work
[2] = biological target: T1, human adult muscle nicotinic acetylcholine receptor αβεδ (Homo sapiens, UniProt P02708+P11230+Q04844+Q07001); assay: ACh-evoked currents at adult muscle nAChR in Xenopus oocytes, two-electrode voltage clamp; type: cell-based; conditions: read-out: IC50 of block of ACh-evoked currents
T1 construct: expressed in transfected cells; host or cells: Xenopus laevis oocytes injected with cRNA (cDNAs in pRBG4, gifts of A. G. Engel and F. Grassi)
Excerpt: The deviations are represented by the standard error of the mean (SEM).

[3] = biological target: human homomeric 5HT3A-receptors; set-up: method as in Thompson and Lummis, 2008; conditions: ref Thompson and Lummis, 2008; cited from earlier work
[4] = biological target: human heteromeric 5HT3AB-receptors; set-up: method as in Thompson and Lummis, 2008; conditions: ref Thompson and Lummis, 2008; cited from earlier work
[5] = tested on: neuronal rat α9α10 nAChRs; set-up: method as in Ballestero et al., 2005; conditions: ref Ballestero et al., 2005; cited from earlier work
[6] = tested on: recombinant muscle receptor expressed in HEK293 cells; conditions: concentrations up to 30 μM; ref Sieb et al., 1996; cited from earlier work
human GABA(A)-receptors = biological target: human GABA(A)-receptors; set-up: method as in Thompson and Lummis, 2008; conditions: ref Thompson and Lummis, 2008; cited from earlier work

T1 sequence (P02708 21-457): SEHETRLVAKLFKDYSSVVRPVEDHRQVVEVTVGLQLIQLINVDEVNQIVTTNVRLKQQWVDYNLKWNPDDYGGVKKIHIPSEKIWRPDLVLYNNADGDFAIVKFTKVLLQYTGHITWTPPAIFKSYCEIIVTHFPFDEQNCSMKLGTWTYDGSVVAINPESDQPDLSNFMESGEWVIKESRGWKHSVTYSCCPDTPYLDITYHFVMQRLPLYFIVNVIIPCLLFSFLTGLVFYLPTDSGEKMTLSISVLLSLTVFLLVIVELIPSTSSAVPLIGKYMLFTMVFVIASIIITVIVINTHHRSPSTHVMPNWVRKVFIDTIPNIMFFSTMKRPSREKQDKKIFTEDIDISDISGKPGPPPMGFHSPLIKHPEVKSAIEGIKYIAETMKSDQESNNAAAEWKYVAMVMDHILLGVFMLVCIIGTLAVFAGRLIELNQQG
T1 sequence (P11230 24-501): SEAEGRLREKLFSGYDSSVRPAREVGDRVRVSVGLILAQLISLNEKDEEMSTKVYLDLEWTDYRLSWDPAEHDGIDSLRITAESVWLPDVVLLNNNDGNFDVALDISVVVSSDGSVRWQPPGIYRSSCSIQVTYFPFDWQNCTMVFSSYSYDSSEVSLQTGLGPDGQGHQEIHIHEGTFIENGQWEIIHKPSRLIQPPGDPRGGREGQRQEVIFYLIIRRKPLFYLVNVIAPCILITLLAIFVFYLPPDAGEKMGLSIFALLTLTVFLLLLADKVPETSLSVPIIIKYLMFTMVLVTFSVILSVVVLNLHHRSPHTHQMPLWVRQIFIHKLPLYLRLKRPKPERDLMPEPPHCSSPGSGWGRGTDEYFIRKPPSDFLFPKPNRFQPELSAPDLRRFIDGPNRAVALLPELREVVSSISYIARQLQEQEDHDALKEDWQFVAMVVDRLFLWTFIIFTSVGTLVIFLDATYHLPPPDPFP
T1 sequence (Q07001 22-517): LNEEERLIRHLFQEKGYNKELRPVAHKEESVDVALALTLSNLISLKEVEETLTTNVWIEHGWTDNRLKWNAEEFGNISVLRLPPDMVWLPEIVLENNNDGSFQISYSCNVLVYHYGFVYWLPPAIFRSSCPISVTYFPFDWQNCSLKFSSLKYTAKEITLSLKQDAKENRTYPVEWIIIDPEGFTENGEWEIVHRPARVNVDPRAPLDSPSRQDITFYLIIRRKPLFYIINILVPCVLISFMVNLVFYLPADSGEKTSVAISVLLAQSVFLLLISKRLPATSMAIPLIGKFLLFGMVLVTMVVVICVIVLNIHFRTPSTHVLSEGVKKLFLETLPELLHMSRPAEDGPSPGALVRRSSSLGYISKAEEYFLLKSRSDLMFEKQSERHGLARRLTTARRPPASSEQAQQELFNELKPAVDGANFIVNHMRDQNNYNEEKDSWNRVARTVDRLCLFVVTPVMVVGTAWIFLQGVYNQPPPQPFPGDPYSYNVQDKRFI
T1 sequence (Q04844 21-493): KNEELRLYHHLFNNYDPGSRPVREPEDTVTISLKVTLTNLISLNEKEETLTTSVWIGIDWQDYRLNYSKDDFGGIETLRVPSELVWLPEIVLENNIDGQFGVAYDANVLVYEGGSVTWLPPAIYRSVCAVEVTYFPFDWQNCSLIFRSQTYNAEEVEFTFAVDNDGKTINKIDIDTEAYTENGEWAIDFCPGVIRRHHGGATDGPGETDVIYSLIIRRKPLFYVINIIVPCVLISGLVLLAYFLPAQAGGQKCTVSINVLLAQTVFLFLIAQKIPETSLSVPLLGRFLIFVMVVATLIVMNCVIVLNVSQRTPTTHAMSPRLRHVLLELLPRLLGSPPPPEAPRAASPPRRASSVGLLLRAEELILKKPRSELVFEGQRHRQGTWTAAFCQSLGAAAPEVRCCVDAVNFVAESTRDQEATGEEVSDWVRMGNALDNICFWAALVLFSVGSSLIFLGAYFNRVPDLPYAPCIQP

C=C[C@H]1C[N@@]2CC[C@H]1C[C@H]2[C@H](O)c1ccnc2ccc(OC)cc12 [quinine sulfate]
Time of peak plasma concentration after intake [1]: about 2 h

CCN(CC)CCCC(C)Nc1ccnc2cc(Cl)ccc12 (stereo not shown) [chloroquine]
IC50 [2]: 2.22 µM

C=C[C@H]1C[N@@]2CC[C@H]1C[C@H]2[C@H](O)c1ccnc2ccc(OC)cc12 [quinine]
IC50 [3]: ~1 µM | IC50 [4]: ~16 µM | IC50 [5]: ~1 µM | Inhibition of the binding of α-bungarotoxin [6]: could not inhibit | IC50 (human GABA(A)-receptors): ~1600 µM
